Results on one compound are retold here after patent US4230719A, “Novel 2-[4-(3-methyl-2-thienyl)phenyl]propionic acid and pharmaceutically acceptable salt thereof and method for treating symptoms of inflammation and pain” (Toyama Chemical Co., Ltd., priority 1977, dated 1980).

Like-named read-outs stand apart in the source and are kept apart here.

One experiment deals with uric acid in plasma. The experiment is described as follows: Uricosuric action (b), uric acid in plasma of uric acid loaded rats. Format: in vivo, rat (Wistar strain, male). The protocol: (b) After fasting overnight, the test compound was orally administered to a Wistar strain male rat weighing 150 to 200 g. After one hour, the rat was loaded with 100 mg/kg of uric acid by intraperitoneal administration. Thirty minutes thereafter, a blood sample was drawn from the cervical vein and the uric acid concentration in the plasma was determined by use of a kit (Uric acid test Wako) for the uric acid determination.

The test system of experiment [1] is Phenol Red (PSP) excretion. Description: Uricosuric action (a), inhibition of Phenol Red (PSP) excretion. Format: in vivo, rabbit (male). Here is the method:
(a) The action was examined by the method of B. B. Brodie et al. who reported that the inhibitory action on Phenol Red (PSP) excretion correlates with the uricosuric action [Proc. Soc. Exp. Biol. Med., 86, 884 (1954)]. To a male rabbit weighing 2 to 3 kg was intraperitoneally administered the test compound. After 30 minutes, 75 mg/kg of a Phenol Red suspension was injected into the pinna vein of the rabbit and 30 minutes thereafter a blood sample was drawn from the pinna vein. The blood sample was centrifuged and the serum was diluted with physiological saline. The diluted serum was treated with 0.1 N NaOH to develop the color. The concentration of Phenol Red in the serum was determined from the absorbance at 560 mμ.

The next experiment relates to Glomerulonephritis. The experiment is described as follows: Action on glomerulonephritis in rats. Format: in vivo, rat (Wistar strain, male). The conditions noted are these: 25 mg/kg p.o./day. The source says:
(ii) Action on glomerulonephritis in rats
Glomerulonephritis was induced in Wistar strain male rats (each weighing 180 to 200 g) by use of an anti-rat's kidney rabbit serum obtained from the serum of a rabbit sensitized with a homogenate of rat's kidney cortice. To the rat producing stable proteinuria was orally administered the test compound repeatedly at the rate shown in Table 12 for 2 weeks, and the inhibition of uric protein was examined.

In experiment [2] the test system is fever (Mycobacterium butyricum). Description: Antipyretic action. The class given is in vivo, rat (Wistar strain, female). Here is the method:
A suspension (0.6 mg/0.1 ml) of killed and dried Mycobacterium butyricum in liquid paraffin was subcutaneously injected in an amount of 0.1 ml into the subplantar region of the hind paw of each Wistar strain female rat weighing about 180 g. After 14 hours, the fevered rats were divided into groups, and each test compound was orally administered to each group to examine the antipyretic effect.

Experiment [3] deals with threshold value of pain due to pressure stimuli (tail). Particulars: for Analgesic effect: 100% = threshold raised by 160 g.
Experiment [4] has as its system prostaglandin biosynthesis (homogenate of guinea pig's lung). The experiment is described as follows: Inhibitory action on prostaglandin biosynthesis (TBA method). Particulars: read-out: ID50.
Source text: Using a homogenate of guinea pig's lung as an enzyme preparation for the biosynthesis of prostaglandin, the inhibitory activity of the test compound against the prostaglandin biosynthesis was examined by the TBA (thiobarbituric acid) method.

By ED50 is commonly meant the midpoint of the dose-response relation. Low values mean an effect at a small dose, high ones a need for a large dose.

In the case of `CCCCC1C(=O)N(c2ccccc2)N(c2ccccc2)C1=O` [Phenylbutazone], the “Uric acid concentration in plasma, mean ± S.E.” value in the experiment with uric acid in plasma (50 mg/kg p.o.) worked out at 5.3 ± 0.37 mg/dL; in the experiment with uric acid in plasma (100 mg/kg p.o.), 3.3 ± 0.25 mg/dL. Moreover, the “Concentration of PSP in serum, mean ± S.E.” value amounted to 174.0 ± 5.0 µg/mL in experiment [1] (50 mg/kg i.p.) and 238.0 ± 15.9 µg/mL in experiment [1] (100 mg/kg i.p.). The “Inhibition of uric protein” value is 1.0% with Glomerulonephritis (7th day) and 11.2% in the experiment with Glomerulonephritis (14th day). Also, the “Mean decrease in temp.” value in experiment [2] (5 mg/kg p.o.) came out at 0.27 °C; in experiment [2] (20 mg/kg p.o.), 1.10 °C; in experiment [2] (100 mg/kg p.o.), 1.35 °C. In experiment [2] (Rattus norvegicus, po), the ED1.0 was determined as 26.5 mg/kg. The Analgesic effect was 26% in experiment [3] (25 mg/kg p.o.) and 70% in experiment [3] (100 mg/kg p.o.). Further, the ED50 in experiment [3] (Mus musculus, po) stood at 53 mg/kg. Moreover, in experiment [4], the IC50 stood at 68 µM.
